From patent US7186744B2, “Prostamides for the treatment of glaucoma and related diseases” (Allergan, Inc., priority 2003, dated 2007) come the findings set out here.

In the assay the test system is dogs (Beagle). The experiment in a line: Intraocular pressure studies by pneumatonometry in dogs. The class given is in vivo. The note with it: conscious Beagle dogs, topical 25 μL drop, 0.03% drug. How it is done:
Intraocular pressure studies were carried out for compounds 1–3 by pneumatonometry in dogs (Beagle) of both sexes (10–15 kg). The animals remained conscious throughout the study and were gently restrained by hand. Drugs were administered topically to one eye as a 25 μL volume drop comprising 0.03% drug, 0.1% polysorbate 80:10 mM TRIS, the other eye received 0.1% polysorbate 80:10 mM TRIS. Proparacaine (0.1%) was used for corneal anesthesia during tonometry. Intraocular pressure was determined just before drug administration and at 2, 4 and 6 hours thereafter on each day of the 5 day study. […] Drug was administered immediately after the first IOP reading.

Where [1] appears, read: 0 hrs (just before drug administration).

Marks after values point to notes of the source that are not given here.

Take `CCCCC[C@H](O)/C=C/[C@@H]1[C@@H](C/C=C\CCCC(=O)NCCc2ccc(O)c(O)c2)[C@@H](O)C[C@H]1O` [Compound 2, (Z)-7-[(1R,2R,3R,5S)-3,5-Dihydroxy-2-((E)—(S)-3-hydroxy-oct-1-enyl)-cyclopentyl]-hept-5-enoic acid [2-(3,4-dihydroxy-phenyl)-ethyl]-amide]: the “Change in Intraocular Pressure (IOP)” value under setting [1] is 0; the “Change in Intraocular Pressure (IOP)” value (2 hrs) is −3.8*; the “Change in Intraocular Pressure (IOP)” value (4 hrs) was −3.2**; the “Change in Intraocular Pressure (IOP)” value (6 hrs) is −3.2**; the “Change in Intraocular Pressure (IOP)” value (24 hrs) is listed as −1.1*.

In the case of `CCCCC[C@H](O)/C=C/[C@@H]1[C@@H](C/C=C\CCCC(=O)NCCc2c[nH]c3ccc(O)cc23)[C@@H](O)C[C@H]1O` [Compound 3, (Z)-7-[(1R,2R,3R,5S)-3,5-Dihydroxy-2-((E)—(S)-3-hydroxy-oct-1-enyl)-cyclopentyl]-hept-5-enoic acid [2-(5-hydroxy-1H-indol-3-yl)-ethyl]-amide], the “Change in Intraocular Pressure (IOP)” value is, setting by setting: under setting [1], 0; (2 hrs) −3.2*; (4 hrs) −5.8*; (6 hrs) −7.6**; (24 hrs) −2.2.
